Test results reported in patent US10433553B2, “Salts of N-(1,3,4-oxadiazol-2-yl) aryl carboxylic acid amides and the use of same as herbicides” (BAYER CROPSCIENCE AKTIENGESELLSCHAFT, priority 2015, dated 2019).
Like-named read-outs stand apart in the source and are kept apart here.

What was measured:
[1] = test system: ABUTH; assay: Pre-emergence herbicidal action against harmful plants; assay type: in vivo, Abutilon theophrasti; details: scored visually after 3 weeks
Procedure: (§1) 1. Pre-Emergence Herbicidal Action Against Harmful Plants
(§2) Seeds of monocotyledonous and dicotyledonous weed plants and crop plants are laid out in wood-fiber pots in sandy loam and covered with soil. […] The comparative tests were conducted by way of example on some weed plants and crop plants.

[2] = test system: AMARE; assay: Post-emergence herbicidal action against harmful plants; assay type: in vivo, Amaranthus retroflexus; details: dosage 5 g/ha, assessed visually after about 3 weeks
Procedure: (§3) 2. Post-Emergence Herbicidal Action Against Harmful Plants
(§4) Seeds of monocotyledonous and dicotyledonous weed and crop plants are laid out in sandy loam in wood-fiber pots, covered with soil and cultivated in a greenhouse under good growth conditions. 2 to 3 weeks after sowing, the test plants are treated at the one-leaf stage.

[3] = test system: STEME; assay: Pre-emergence herbicidal action against harmful plants; assay type: in vivo, Stellaria media; details: dosage 20 g/ha, scored visually after 3 weeks
Text: as §1

[4] = test system: TRZAS; assay: Pre-emergence damage to crop plants; assay type: in vivo; details: dosage 20 g/ha, scored visually after 3 weeks
Text: as §1

[5] = test system: ALOMY; assay: Pre-emergence herbicidal action against harmful plants; assay type: in vivo; details: scored visually after 3 weeks
Procedure: as §1, §2

[6] = test system: CYPES; assay: as above; assay type: in vivo; details: scored visually after 3 weeks
Procedure: as §1, §2

[7] = test system: ALOMY; assay: Post-emergence herbicidal action against harmful plants; assay type: in vivo; details: dosage 5 g/ha, assessed visually after about 3 weeks
Procedure: as §3, §4

[8] = test system: VERPE; assay: as above; assay type: in vivo; details: dosage 5 g/ha, assessed visually after about 3 weeks
Procedure: as §3, §4

[9] = test system: ZEAMX; assay: Post-emergence damage to crop plants; assay type: in vivo; details: dosage 5 g/ha, assessed visually after about 3 weeks
Procedure: as §3, §4

[10] = test system: ZEAMX; details: pre-emergence, scored visually after 3 weeks
Procedure: as §1, §2

[11] = dosage 20 g/ha, 100% = plants have died, 0% = like control plants

Cc1nnc(NC(=O)c2ccc(C(F)(F)F)c(S(C)(=O)=O)c2C)o1 [drawing 20]
Activity against ABUTH [1, 11]: 70%

Cc1nnc(NC(=O)c2ccc(C(F)(F)F)c(S(C)(=O)=O)c2C)o1 [drawing 44, reference compound]
Activity against AMARE [2]: 80%

Cc1nnc(NC(=O)c2ccc(C(F)(F)F)c(S(C)(=O)=O)c2C)o1 [drawing 18]
Activity against ABUTH [1, 11]: 70%

Cc1nnc(NC(=O)c2ccc(C(F)(F)F)c(S(C)(=O)=O)c2C)o1 [drawing 46, reference compound]
Activity against AMARE [2]: 80%

Cc1nnc([N-]C(=O)c2ccc(C(F)(F)F)c(S(C)(=O)=O)c2C)o1.[K+] [drawing 9]
Activity against STEME [3]: 90%
Damage to TRZAS [4]: 0%

Cc1nnc(NC(=O)c2ccc(C(F)(F)F)c(S(C)(=O)=O)c2C)o1 [drawing 40, reference compound]
Activity against AMARE [2]: 80%

CCc1nnc(NC(=O)c2ccc(S(=O)(=O)CC)c(C3=NOC(COC)C3)c2Cl)o1 (stereo not shown) [drawing 36]
Activity against ALOMY ([5]; dosage 320 g/ha): 10%
Activity against CYPES ([6]; dosage 320 g/ha): 80%
Activity against ABUTH ([1]; dosage 320 g/ha): 90%

Cc1nnc(NC(=O)c2ccc(C(F)(F)F)c(S(C)(=O)=O)c2C)o1 [drawing 21]
Activity against ABUTH [1, 11]: 100%

Cc1nnc(NC(=O)c2ccc(C(F)(F)F)c(S(C)(=O)=O)c2C)o1 [drawing 53]
Activity against ALOMY [7]: 80%
Activity against VERPE [8]: 90%

Cc1nnc(NC(=O)c2ccc(C(F)(F)F)c(S(C)(=O)=O)c2C)o1 [drawing 29]
Activity against ALOMY ([5]; dosage 20 g/ha): 10%
Activity against CYPES ([6]; dosage 20 g/ha): 70%
Activity against ABUTH [1, 11]: 100%

Cc1nnc([N-]C(=O)c2ccc(C(F)(F)F)c(S(C)(=O)=O)c2C)o1.[Na+] [drawing 7]
Damage to TRZAS [4]: 0%
Activity against ABUTH [1, 11]: 100%

Cc1nnc(NC(=O)c2ccc(C(F)(F)F)c(S(C)(=O)=O)c2C)o1 [drawing 15]
Activity against ABUTH [1, 11]: 100%

Cc1nnc(NC(=O)c2ccc(C(F)(F)F)c(S(C)(=O)=O)c2C)o1 [drawing 13]
Activity against ABUTH [1, 11]: 100%

Cc1nnc(NC(=O)c2ccc(C(F)(F)F)c(S(C)(=O)=O)c2C)o1 [drawing 16]
Activity against ABUTH [1, 11]: 70%

Cc1nnc(NC(=O)c2ccc(C(F)(F)F)c(S(C)(=O)=O)c2C)o1 [drawing 50, reference compound]
Activity against AMARE [2]: 40%

Cc1nnc(NC(=O)c2ccc(C(F)(F)F)c(S(C)(=O)=O)c2C)o1 [drawing 45]
Activity against AMARE [2]: 100%

Cc1nnc(NC(=O)c2ccc(C(F)(F)F)c(S(C)(=O)=O)c2C)o1 [drawing 24]
Activity against ALOMY ([5]; dosage 20 g/ha): 20%
Activity against CYPES ([6]; dosage 20 g/ha): 40%
Activity against ABUTH [1, 11]: 70%

Cc1nnc(NC(=O)c2ccc(C(F)(F)F)c(S(C)(=O)=O)c2C)o1 [drawing 52, reference compound]
Activity against ALOMY [7]: 60%
Activity against VERPE [8]: 60%

Cc1nnc([N-]C(=O)c2ccc(C(F)(F)F)c(S(C)(=O)=O)c2C)o1.[Na+] [drawing 39]
Activity against AMARE [2]: 100%
Damage to ZEAMX [9]: 0%

Cc1nnc(NC(=O)c2ccc(C(F)(F)F)c([S+](C)[O-])c2Cl)o1 (stereo not shown) [drawing 34]
Activity against ALOMY ([5]; dosage 20 g/ha): 20%
Activity against CYPES ([6]; dosage 20 g/ha): 60%
Activity against ABUTH [1, 11]: 60%

Cc1nnc(NC(=O)c2ccc(C(F)(F)F)c(S(C)(=O)=O)c2C)o1 [drawing 30]
Activity against ALOMY ([5]; dosage 20 g/ha): 20%
Activity against CYPES ([6]; dosage 20 g/ha): 40%
Activity against ABUTH [1, 11]: 70%

Cc1nnc(NC(=O)c2ccc(C(F)(F)F)c(S(C)(=O)=O)c2C)o1 [drawing 26]
Activity against ALOMY ([5]; dosage 20 g/ha): 20%
Activity against CYPES ([6]; dosage 20 g/ha): 40%
Activity against ABUTH [1, 11]: 70%

Cc1nnc(NC(=O)c2ccc(C(F)(F)F)c([S+](C)[O-])c2C)o1 (stereo not shown) [drawing 56, reference compound]
Activity against ALOMY [7]: 60%
Activity against VERPE [8]: 50%

Cc1nnc(NC(=O)c2ccc(C(F)(F)F)c(S(C)(=O)=O)c2C)o1 [drawing 54, reference compound]
Activity against ALOMY [7]: 60%
Activity against VERPE [8]: 60%

Cc1nnc(NC(=O)c2ccc(C(F)(F)F)c(S(C)(=O)=O)c2C)o1 [drawing 11]
Activity against STEME [3]: 90%

Cc1nnc(NC(=O)c2ccc(C(F)(F)F)c(S(C)(=O)=O)c2C)o1 [drawing 10, reference compound]
Activity against STEME [3]: 70%

Cc1nnc(NC(=O)c2ccc(C(F)(F)F)c(S(C)(=O)=O)c2C)o1 [drawing 14]
Activity against ABUTH [1, 11]: 70%

Cc1nnc(NC(=O)c2ccc(C(F)(F)F)c(S(C)(=O)=O)c2C)o1 [drawing 12, reference compound]
Activity against STEME [3]: 70%

Cc1nnc(NC(=O)c2ccc(C(F)(F)F)c(S(C)(=O)=O)c2C)o1 [drawing 22]
Activity against ABUTH [1, 11]: 70%

Cc1nnc(NC(=O)c2ccc(C(F)(F)F)c(S(C)(=O)=O)c2C)o1 [drawing 49]
Activity against AMARE [2]: 60%

Cc1nnc(NC(=O)c2ccc(C(F)(F)F)c([S+](C)[O-])c2Cl)o1 (stereo not shown) [drawing 57]
Activity against VERPE [8]: 80%

Cc1nnc([N-]C(=O)c2ccc(C(F)(F)F)c(S(C)(=O)=O)c2C)o1.[K+] [drawing 47]
Activity against AMARE [2]: 60%
Damage to ZEAMX [9]: 0%

Cc1nnc(NC(=O)c2ccc(C(F)(F)F)c(S(C)(=O)=O)c2C)o1 [drawing 19]
Activity against ABUTH [1, 11]: 100%

Cc1nnc(NC(=O)c2ccc(C(F)(F)F)c(S(C)(=O)=O)c2C)o1 [drawing 23]
Activity against ALOMY ([5]; dosage 20 g/ha): 70%
Activity against CYPES ([6]; dosage 20 g/ha): 70%
Activity against ABUTH [1, 11]: 100%

CCc1nnc([N-]C(=O)c2ccc(S(=O)(=O)CC)c(C3=NOC(COC)C3)c2Cl)o1.[Na+] (stereo not shown)
Damage to ZEAMX ([10]; dosage 320 g/ha): 0%
Activity against ALOMY ([5]; dosage 320 g/ha): 30%
Activity against CYPES ([6]; dosage 320 g/ha): 80%
Activity against ABUTH ([1]; dosage 320 g/ha): 90%

CCc1nnc(NC(=O)c2ccc(S(=O)(=O)CC)c(C3=NOC(COC)C3)c2Cl)o1 (stereo not shown) [drawing 38]
Activity against ALOMY ([5]; dosage 320 g/ha): 10%
Activity against CYPES ([6]; dosage 320 g/ha): 80%
Activity against ABUTH ([1]; dosage 320 g/ha): 10%

Cc1nnc(NC(=O)c2ccc(C(F)(F)F)c(S(C)(=O)=O)c2C)o1 [drawing 42, reference compound]
Activity against AMARE [2]: 80%

Cc1nnc(NC(=O)c2ccc(C(F)(F)F)c(S(C)(=O)=O)c2C)o1 [drawing 8]
Activity against ABUTH [1, 11]: 70%

Cc1nnc(NC(=O)c2ccc(C(F)(F)F)c(S(C)(=O)=O)c2C)o1 [drawing 48, reference compound]
Activity against AMARE [2]: 40%

Cc1nnc(NC(=O)c2ccc(C(F)(F)F)c(S(C)(=O)=O)c2C)o1 [drawing 28]
Activity against ALOMY ([5]; dosage 20 g/ha): 20%
Activity against CYPES ([6]; dosage 20 g/ha): 40%
Activity against ABUTH [1, 11]: 70%

Cc1nnc(NC(=O)c2ccc(C(F)(F)F)c(S(C)(=O)=O)c2C)o1 [drawing 27]
Activity against ALOMY ([5]; dosage 20 g/ha): 60%
Activity against CYPES ([6]; dosage 20 g/ha): 60%
Activity against ABUTH [1, 11]: 100%

Cc1nnc(NC(=O)c2ccc(C(F)(F)F)c(S(C)(=O)=O)c2C)o1 [drawing 43]
Activity against AMARE [2]: 100%

Cc1nnc(NC(=O)c2ccc(C(F)(F)F)c([S+](C)[O-])c2C)o1 (stereo not shown) [drawing 58, reference compound]
Activity against ALOMY [7]: 60%
Activity against VERPE [8]: 50%

Cc1nnc(NC(=O)c2ccc(C(F)(F)F)c([S+](C)[O-])c2Cl)o1 (stereo not shown) [drawing 33]
Activity against ALOMY ([5]; dosage 20 g/ha): 60%

Cc1nnc(NC(=O)c2ccc(C(F)(F)F)c(S(C)(=O)=O)c2C)o1 [drawing 17]
Activity against ABUTH [1, 11]: 100%

CCc1nnc(NC(=O)c2ccc(S(=O)(=O)CC)c(C3=NOC(COC)C3)c2Cl)o1 (stereo not shown) [drawing 37]
Damage to ZEAMX ([10]; dosage 320 g/ha): 10%
Activity against ALOMY ([5]; dosage 320 g/ha): 20%
Activity against CYPES ([6]; dosage 320 g/ha): 100%
Activity against ABUTH ([1]; dosage 320 g/ha): 80%

Cc1nnc(NC(=O)c2ccc(C(F)(F)F)c(S(C)(=O)=O)c2C)o1 [drawing 41]
Activity against AMARE [2]: 100%

Cc1nnc([N-]C(=O)c2ccc(C(F)(F)F)c(S(C)(=O)=O)c2C)o1.[Na+] [drawing 25]
Damage to ZEAMX ([10]; dosage 20 g/ha): 0%
Activity against ALOMY ([5]; dosage 20 g/ha): 60%
Activity against CYPES ([6]; dosage 20 g/ha): 40%

Cc1nnc(NC(=O)c2ccc(C(F)(F)F)c([S+](C)[O-])c2Cl)o1 (stereo not shown) [drawing 32]
Activity against ALOMY ([5]; dosage 20 g/ha): 20%
Activity against CYPES ([6]; dosage 20 g/ha): 60%
Activity against ABUTH [1, 11]: 60%
